Assay results reported in US20250340743A1, “Polyetheramine-Based Multifunctional Booster” (Troy Technology II, Inc., priority 2022, published 2025).
Read-outs that look alike come from different tables or passages of the source.

System: Pseudomonas aeruginosa (ATCC #10145)
Test: MIC via microbroth dilution
Assay type: cell-based
Protocol: To examine the preservative boosting potential of these dispersions, minimum inhibitory concentration (MIC) testing was performed. MICs were determined via microbroth dilution using the following specific test parameters:
Necessary organism dilutions via OD600 were calculated based on OD600 of 1.0 being equivalent to 8×10^8 CFU/mL. Biocide dilutions were performed in 2-fold increments for each assay.

SMILES	Fold Reduction of MIC over control without booster (Table 7, with 0.075% “1737-72”:AMP95 (1:1)) [fold]	Fold Reduction of MIC over control without booster (Table 7, with 0.15% “1737-72”:AMP95 (1:1)) [fold]	fold lower MIC values (biocide in combination with magnesium oxide version “1737-34”) [fold]	Fold Reduction of MIC over control without booster [fold]	fold lower MIC values
O=c1[nH]sc2ccccc12 [BIT, 1,2-benzisothiazolin-3-one]	2	2	2	–	–
[Na+].[O-][n+]1ccccc1[S-] [sodium pyrithione]	–	–	–	64	clearly antagonistic
